The target in the test is T1, human TREM2 (Homo sapiens, UniProt Q9NZC2).
T1 construct: expressed in transfected cells; host or cells: HEK293T
The test is described as follows: TREM2 agonist potency by cellular phosphorylation of Syk (AlphaLisa) in HEK293T-hTREM2 cells. It is filed as cell-based. A digest of the protocol: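 Agonist EC50 from a variable-slope four-parameter fit of % activation, based on AlphaLisa phospho-Syk levels in lysates. Cells: HEK293T-hTREM2 (with DAP12), treated 45 min at room temperature with compound in assay buffer.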

[1] abbreviates: HEK293 cells expressing human TREM2 and DAP12, Table D-2.
Where [2] appears, read: HEK293 cells expressing human TREM2 and DAP12, Table D.

T1 sequence (Q9NZC2 19-230): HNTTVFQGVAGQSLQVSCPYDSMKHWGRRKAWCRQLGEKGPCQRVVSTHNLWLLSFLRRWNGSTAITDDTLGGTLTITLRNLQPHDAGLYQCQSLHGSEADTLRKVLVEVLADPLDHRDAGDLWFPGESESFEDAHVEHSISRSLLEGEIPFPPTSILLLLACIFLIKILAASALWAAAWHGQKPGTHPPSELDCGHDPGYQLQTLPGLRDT
T1 sequence (O43914 22-113 partner): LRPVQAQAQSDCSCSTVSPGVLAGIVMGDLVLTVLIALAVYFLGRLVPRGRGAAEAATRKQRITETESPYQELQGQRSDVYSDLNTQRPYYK

Consider `Cc1nc2nc([C@H]3CCO[C@@H](c4cnn(C5CC5)c4)C3)nc(-c3ccc(Cl)cc3F)c2nc1C(F)F` [Example I-1099, 4-(4-chloro-2-fluoro-phenyl)-2-[(2R,4S)-2-(1-cyclopropylpyrazol-4-yl)tetrahydropyran-4-yl]-6-(difluoromethyl)-7-methyl-pteridine], for which, under setting [1], the EC50 – broadly, the concentration that produces a half-maximal response – is less than 50 nM.

`Cc1cc(N2C[C@@H](c3nc(-c4ccc(F)cc4F)c4nc(C)c(C)nc4n3)CCC2=O)ccn1` [Example I-1513] returned an EC50 under setting [1] of 50 to 500 nM. `Cc1nc2nc([C@H]3CCO[C@@H](c4cnn(C5CC5)c4)C3)nc(-c3ccc(C(C)C)cc3F)c2nc1C` [Example I-1192]: the EC50 under setting [1] was 500 to 3000 nM.

The compound `Cc1nc2nc([C@H]3CCO[C@@H](c4cnn(C5CC5)c4)C3)nc(-c3ccc(C(F)(F)F)c(F)c3F)c2nc1C` (stereo in doubt) [Example I-1588, 4-[2,3-difluoro-4-(trifluoromethyl)phenyl]-6,7-dimethyl-2-[(2R,4S)-2-(1-cyclopropylpyrazol-4-yl)tetrahydropyran-4-yl]pteridine] yielded a concentration for a half-maximal effect (EC50) under setting [1] of less than 50 nM. `Cc1cc([C@@H]2C[C@H](c3cc(-c4ccc(Cl)cc4F)c4cc(C)c(C)nc4n3)CCO2)ccn1` [Example 185, 5-(4-chloro-2-fluorophenyl)-2,3-dimethyl-7-((2S,4R)-2-(2-methylpyridin-4-yl)tetrahydro-2H-pyran-4-yl)-1,8-naphthyridine] gave an EC50 under setting [2] of 500 to 3000 nM. The same measure, in the same setting: for `Cc1ccc2c(-c3cc(F)c(Cl)cc3F)nc([C@H]3CCO[C@@H](c4cnn(C5CC5)c4)C3)nc2n1` [Example 219, 4-(4-chloro-2,5-difluorophenyl)-2-((2R,4S)-2-(1-cyclopropyl-1H-pyrazol-4-yl)tetrahydro-2H-pyran-4-yl)-7-methylpyrido[2,3-d]pyrimidine] the value was less than 50 nM; for `COc1ncccc1[C@@H]1C[C@H](c2nc(-c3ccc(F)cc3F)c3nc(C)c(C)nc3n2)CCO1` [Example 160, 4-(2,4-difluorophenyl)-2-((2S,4R)-2-(2-methoxypyridin-3-yl)tetrahydro-2H-pyran-4-yl)-6,7-dimethylpteridine], 50 to 500 nM. Consider `Cc1nc2nc([C@H]3CCO[C@@H](c4cnn(C5CC5)c4)C3)nc(-c3ccc(Cl)cc3F)c2nc1OCCF` [Example I-1283, 4-(4-chloro-2-fluoro-phenyl)-2-[(2R,4S)-2-(1-cyclopropylpyrazol-4-yl)tetrahydropyran-4-yl]-6-(2-fluoroethoxy)-7-methyl-pteridine], for which the EC50 under setting [1] is less than 50 nM. Same read-out and setting: for `CCCc1nc2c(-c3ccc(F)cc3F)nc(N3C[C@@H](C)O[C@@H](c4cnn(C5CC5)c4)C3)nc2nc1C` [Example I-1293] the value was less than 50 nM; for `Cc1cc2c(C3CCC(C(F)F)CC3)nc(N3C[C@@H](C)O[C@@H](c4cnn(C5CC5)c4)C3)nc2nc1C` (stereo partly drawn) [Example I-1328, (2S,6R)-2-(1-cyclopropylpyrazol-4-yl)-4-[4-[4-(difluoromethyl)cyclohexyl]-6,7-dimethyl-pyrido[2,3-d]pyrimidin-2-yl]-6-methyl-morpholine], less than 50 nM; for `Cc1nc2nc(N3C[C@@H](C4CC4)O[C@@H](c4cnn(C)c4)C3)nc(-c3ccc(F)cc3F)c2nc1C` [Example I-1673, (2R,6S)-2-cyclopropyl-4-[4-(2,4-difluorophenyl)-6,7-dimethyl-pteridin-2-yl]-6-(1-methylpyrazol-4-yl)morpholine], less than 50 nM. The compound `Cc1ccc2c(C34CC(C(F)(F)F)(C3)C4)nc([C@H]3CCO[C@@H](c4cnn(C5CC5)c4)C3)nc2n1` [Example 221, 2-((2R,4S)-2-(1-cyclopropyl-1H-pyrazol-4-yl)tetrahydro-2H-pyran-4-yl)-7-methyl-4-(3-(trifluoromethyl)bicyclo[1.1.1]pentan-1-yl)pyrido[2,3-d]pyrimidine] had an EC50 under setting [2] of less than 50 nM. `Cc1nc2nc(N3C[C@@H](C(F)F)O[C@@H](c4cnn(C5CC5)c4)C3)nc(-c3ccc(F)cc3F)c2nc1C` (single isomer, unassigned) [Example I-1467] showed an EC50 under setting [1] of less than 50 nM. The same measure, in the same setting: the figure for `Cc1nc2nc(N3C[C@@H](C)O[C@@H](c4cnn(C5CC5)c4)C3)nc(-c3ccc(F)cc3F)c2nc1C(F)F` [Example I-1609, (2S,6R)-2-(1-cyclopropylpyrazol-4-yl)-4-[6-(difluoromethyl)-4-(2,4-difluorophenyl)-7-methyl-pteridin-2-yl]-6-methyl-morpholine] is less than 50 nM; for `Cc1nc2nc(N3C[C@@H](C4CC4)O[C@@H](c4cnn(C(F)F)c4)C3)nc(-c3ccc(F)cc3F)c2nc1C` (stereo in doubt) [Example I-1702, (2R,6S)-2-cyclopropyl-6-[1-(difluoromethyl)pyrazol-4-yl]-4-[4-(2,4-difluorophenyl)-6,7-dimethyl-pteridin-2-yl]morpholine] it is 50 to 500 nM. Still for that read-out and setting: for `Cc1cc(-c2nc(N3C[C@@H](C)O[C@@H](c4cnn(C5CC5)c4)C3)nc3nc(C)c(C)nc23)on1` [Example I-1086, (2S,6R)-2-(1-cyclopropylpyrazol-4-yl)-4-[6,7-dimethyl-4-(3-methylisoxazol-5-yl)pteridin-2-yl]-6-methyl-morpholine] the value was 500 to 3000 nM; for `Cc1nc2c(-c3ccc(C(F)(F)F)cc3F)cn([C@H]3CCO[C@@H](c4cnn(C5CC5)c4)C3)c(=O)c2nc1C` [Example I-1567, 6-[(2R,4S)-2-(1-cyclopropyl-1H-pyrazol-4-yl)tetrahydro-2H-pyran-4-yl]-8-[2-fluoro-4-(trifluoromethyl)phenyl]-2,3-dimethylpyrido[3,4-b]pyrazin-5(6H)-one], 3000 to 100000 nM. As for `Cc1nc2nc(N3CCO[C@@H](c4cc[nH]c(=O)c4)C3)nc(C34CC(C(F)(F)F)(C3)C4)c2nc1C` [Example 198, (S)-4-(4-(6,7-dimethyl-4-(3-(trifluoromethyl)bicyclo[1.1.1]pentan-1-yl)pteridin-2-yl)morpholin-2-yl)pyridin-2(1H)-one], the EC50 under setting [2] is less than 50 nM.

Under setting [1], `Cc1nc2nc([C@@H]3CCO[C@H](c4cnc(C5CC5)o4)C3)nc(-c3ccc(F)cc3F)c2nc1C` [Example I-1700, 2-cyclopropyl-5-[(2S,4R)-4-[4-(2,4-difluorophenyl)-6,7-dimethyl-pteridin-2-yl]tetrahydropyran-2-yl]oxazole] came in with an EC50 of 50 to 500 nM. Consider `Fc1ccc(-c2nc([C@H]3CCO[C@@H](c4cnn(C5CC5)c4)C3)cc3nc4c(nc23)COC4)c(F)c1` [Example 238, 7-((2R,4S)-2-(1-cyclopropyl-1H-pyrazol-4-yl)tetrahydro-2H-pyran-4-yl)-5-(2,4-difluorophenyl)-1,3-dihydrofuro[3,4-b]pyrido[3,4-e]pyrazine], for which the 50% effective concentration (EC50) under setting [2] lay in the range of 50 to 500 nM.

`[2H]C([2H])([2H])c1nc2nc(N3C[C@@H](C)O[C@@H](c4cnn(C5CC5)c4)C3)nc(-c3ccc(F)cc3F)c2nc1C([2H])([2H])[2H]` [Example I-1129, (2S,6R)-2-(1-cyclopropylpyrazol-4-yl)-4-[4-(2,4-difluorophenyl)-6,7-bis(trideuteriomethyl)pteridin-2-yl]-6-methyl-morpholine] showed an EC50 under setting [1] of less than 50 nM. Still for that read-out and setting: the figure for `Cc1nc2nc(N3C[C@@H](C(F)F)O[C@@H](c4cnn(C5CC5)c4)C3)nc(-c3ccc(C(F)(F)F)cc3F)c2nc1C` (stereo in doubt) [Example I-1598, (2S,6S)-2-(1-cyclopropylpyrazol-4-yl)-6-(difluoromethyl)-4-[4-[2-fluoro-4-(trifluoromethyl)phenyl]-6,7-dimethyl-pteridin-2-yl]morpholine] is less than 50 nM. With `Cc1nc2nc([C@H]3CCO[C@@H](c4cnn(CCF)c4)C3)nc(-c3ccc(F)cc3F)c2nc1C` [Example 150, 4-(2,4-difluorophenyl)-2-((2R,4S)-2-(1-(2-fluoroethyl)-1H-pyrazol-4-yl)tetrahydro-2H-pyran-4-yl)-6,7-dimethylpteridine], under setting [2], the EC50 was less than 50 nM. Same read-out and setting: for `Cc1nc2nc([C@@H]3CCO[C@H](c4cnn(C5CCC5)c4)C3)nc(-c3ccc(F)cc3F)c2nc1C` [Example 147, 2-((2S,4R)-2-(1-cyclobutyl-1H-pyrazol-4-yl)tetrahydro-2H-pyran-4-yl)-4-(2,4-difluorophenyl)-6,7-dimethylpteridine] the value was 50 to 500 nM; for `Cc1nc2nc(C3CCOC(c4cn[nH]c4)C3)nc(-c3ccc(F)cc3F)c2nc1C` (centres unmarked) [Example 167, 2-(2-(1H-pyrazol-4-yl)tetrahydro-2H-pyran-4-yl)-4-(2,4-difluorophenyl)-6,7-dimethylpteridine], 50 to 500 nM. Compound `Cc1nc2nc(N3C[C@H](CO)O[C@H](c4cnn(C5CC5)c4)C3)nc(-c3ccc(F)cc3F)c2nc1C` [Example I-1334, [(2R,6R)-6-(1-cyclopropylpyrazol-4-yl)-4-[4-(2,4-difluorophenyl)-6,7-dimethyl-pteridin-2-yl]morpholin-2-yl]methanol] had a concentration for a half-maximal effect (EC50) under setting [1] of 3000 to 100000 nM. Under setting [2], `Cc1nc2nc([C@@H]3CCO[C@H](c4cnn(C5CC5)n4)C3)nc(-c3ccc(F)cc3F)c2nc1C` [Example 154, 2-((2S,4R)-2-(2-cyclopropyl-2H-1,2,3-triazol-4-yl)tetrahydro-2H-pyran-4-yl)-4-(2,4-difluorophenyl)-6,7-dimethylpteridine] showed a half-maximal effective concentration (EC50) of 50 to 500 nM. Turning to `Cc1nc2nc([C@H]3CCO[C@@H](c4cnn(C5CC5)c4)C3)nc(-c3ccc4c(c3)CCC4)c2nc1C` (stereo in doubt) [Example I-1170, 4-indan-5-yl-6,7-dimethyl-2-[(2R,4S)-2-(1-cyclopropylpyrazol-4-yl)tetrahydropyran-4-yl]pteridine], the concentration for a half-maximal effect (EC50) under setting [1] is less than 50 nM. Compound `Cc1nc2nc([C@@H]3CCO[C@H](c4cnn(C5CC(F)C5)c4)C3)nc(C34CC(C(F)(F)F)(C3)C4)c2nc1C` (stereo in doubt) [Example 134, 2-((2S,4R)-2-(1-(3-fluorocyclobutyl)-1H-pyrazol-4-yl)tetrahydro-2H-pyran-4-yl)-6,7-dimethyl-4-(3-(trifluoromethyl)bicyclo[1.1.1]pentan-1-yl)pteridine] displayed an EC50 under setting [2] of less than 50 nM.

(Values after patent publication US20240309003A1, “HETEROCYCLIC COMPOUNDS AS TRIGGERING RECEPTOR EXPRESSED ON MYELOID CELLS 2 AGONISTS AND METHODS OF USE” (Vigil Neuroscience, Inc., priority 2021, published 2024).)
